Source: patent publication US10189788B2, “Substituted N,2-diarylquinoline-4-carboxamides and the use thereof as anti-inflammatory agents” (BAYER PHARMA AKTIENGESELLSCHAFT, priority 2014, dated 2019)

Key:
[1] = target: T1, Human FP Receptor (Homo sapiens (Human), UniProt P43088); test: In vitro test of inhibition of human FP receptor activity, variant B-1A (PGF2α-induced calcium flux in FP-expressing CHEM1 cells); type: cell-based; conditions: calcium flux induced by 3 nM PGF2α, Fluo-8, some mean values from multiple determinations
Source text: • BSA bovine serum albumin • CRTH2 chemoattractant receptor-homologous molecule expressed on T helper type 2 cells • DMEM Dulbecco's modified Eagle's medium • DMSO dimethyl sulfoxide • DP PGD2 receptor • EC50 half-maximum effective concentration • em. emission • EP PGE2 receptor • ex. excitation • FCS fetal calf serum • FP PGF2α receptor • HEPES 2-[4-(2-hydroxyethyl)piperazin-1-yl]ethanesulfonic acid • IC50 half-maximum inhibitory concentration • IP PGI2 receptor • MES 2-(N-morpholino)ethanesulfonic acid • Pen/Strep penicillin/streptomycin • PGD2 prostaglandin D2 • PGE2 prostaglandin E2 • PGF2α prostaglandin F2α • PGI2 prostaglandin […] • TC tissue culture • TP thromboxane A2 receptor • Tris tris(hydroxymethyl)aminomethane • v/v volume to volume ratio (of a solution) • w/w weight to weight ratio (of a solution) B-1.

[2] = target: T1, Human FP Receptor; test: In vitro test of inhibition of human FP receptor activity, variant B-1B (PGF2α-induced calcium flux in recombinant FP-expressing CHO cells with GCaMP6); type: cell-based; conditions: recombinant FP-expressing CHO cells with GCaMP6, calcium flux induced by 3 nM PGF2α, some mean values from multiple determinations
Source text: 470 nm/em. 525 nm in a fluorescence measuring instrument (FLIPR Tetra®, MolecularDevices) for 120 seconds.

T1 sequence (P43088 whole entry): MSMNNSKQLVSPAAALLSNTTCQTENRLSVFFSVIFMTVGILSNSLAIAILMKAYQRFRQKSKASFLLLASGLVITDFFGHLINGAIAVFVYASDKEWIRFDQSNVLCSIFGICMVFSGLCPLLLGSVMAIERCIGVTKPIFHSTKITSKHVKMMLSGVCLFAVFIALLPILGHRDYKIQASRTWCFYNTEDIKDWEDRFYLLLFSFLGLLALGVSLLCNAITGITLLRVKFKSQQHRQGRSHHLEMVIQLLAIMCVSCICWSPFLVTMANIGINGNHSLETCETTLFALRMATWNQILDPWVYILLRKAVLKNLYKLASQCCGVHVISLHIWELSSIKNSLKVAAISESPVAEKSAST

SMILES: Cc1c(-c2ccccc2)nc2ccc(Br)cc2c1C(=O)Nc1ccc(C(=O)O)cc1F [Example 7, 4-{[(6-Bromo-3-methyl-2-phenylquinolin-4-yl)carbonyl]amino}-3-fluorobenzoic acid]
- IC50 [1]: 20 nM
- IC50 [2]: 34 nM

SMILES: Cc1c(-c2ccc(F)cc2)nc2ccc(Br)cc2c1C(=O)Nc1ccc(C(=O)O)cc1F [Example 43, 4-({[6-Bromo-2-(4-fluorophenyl)-3-methylquinolin-4-yl]carbonyl}amino)-3-fluorobenzoic acid]
- IC50 [1]: 52 nM

SMILES: Cc1c(-c2cccc(F)c2)nc2ccc(Br)cc2c1C(=O)Nc1ccc(C(=O)O)cc1F [Example 44, 4-({[6-Bromo-2-(3-fluorophenyl)-3-methylquinolin-4-yl]carbonyl}amino)-3-fluorobenzoic acid]
- IC50 [1]: 33 nM

SMILES: Cc1c(-c2ccccc2F)nc2ccc(Br)cc2c1C(=O)Nc1ccc(C(=O)O)cc1F [Example 45, 4-({[6-Bromo-2-(2-fluorophenyl)-3-methylquinolin-4-yl]carbonyl}amino)-3-fluorobenzoic acid]
- IC50 [1]: 205 nM

SMILES: Cc1c(-c2ccccc2)nc2ccc(Br)cc2c1C(=O)Nc1ccc(C(N)=O)cc1 [Example 47, 6-Bromo-N-(4-carbamoylphenyl)-3-methyl-2-phenylquinoline-4-carboxamide]
- IC50 [1]: 197 nM

SMILES: Cc1c(-c2ccccc2)nc2ccc(Br)cc2c1C(=O)Nc1ccc(C(N)=O)cc1F [Example 48, 6-Bromo-N-(4-carbamoyl-2-fluorophenyl)-3-methyl-2-phenylquinoline-4-carboxamide]
- IC50 [1]: 102 nM

SMILES: Cc1c(C(=O)Nc2ccc(C(=O)O)cc2F)c2cc(Br)ccc2[n+]([O-])c1-c1ccccc1 [Example 49, 4-{[(6-Bromo-3-methyl-1-oxido-2-phenylquinolin-4-yl)carbonyl]amino}-3-fluorobenzoic acid]
- IC50 [1]: 120 nM

SMILES: Cc1c(-c2ccccc2)nc2ccc(Br)cc2c1C(=O)Nc1ccc(C(=O)O)cc1F [Example 50, Sodium 4-{[(6-bromo-3-methyl-2-phenylquinolin-4-yl)carbonyl]amino}-3-fluorobenzoate]
- IC50 [1]: 37 nM
- IC50 [2]: 44 nM

SMILES: COCSc1cc(C(=O)O)ccc1NC(=O)c1c(C)c(-c2ccccc2)nc2ccc(Br)cc12 [Example 52, 4-{[(6-Bromo-3-methyl-2-phenylquinolin-4-yl)carbonyl]amino}-3-[(methoxymethyl)sulfanyl]benzoic acid]
- IC50 [1]: 17 nM
- IC50 [2]: 6 nM

SMILES: Cc1c(-c2ccccc2)nc2ccc(Br)cc2c1C(=O)Nc1ccc(C(=O)O)cc1S(=O)(=O)C(F)(F)F [Example 53, 4-{[(6-Bromo-3-methyl-2-phenylquinolin-4-yl)carbonyl]amino}-3-[(trifluoromethyl)sulfonyl]benzoic acid]
- IC50 [1]: 31 nM

SMILES: Cc1c(C(=O)Nc2ccc(C(=O)O)cc2SC(F)(F)F)c2cc(Br)ccc2[n+]([O-])c1-c1ccccc1 [Example 54, 4-{[(6-Bromo-3-methyl-1-oxido-2-phenylquinolin-4-yl)carbonyl]amino}-3-[(trifluoromethyl)sulfanyl]benzoic acid]
- IC50 [1]: 102 nM

SMILES: Cc1c(-c2ccccc2)nc2ccc(Br)c(Cl)c2c1C(=O)Nc1ccc(C(=O)O)cc1F [Example 55, 4-{[(6-Bromo-5-chloro-3-methyl-2-phenylquinolin-4-yl)carbonyl]amino}-3-fluorobenzoic acid]
- IC50 [1]: 49 nM

SMILES: CNC(=O)c1ccc(NC(=O)c2c(C)c(-c3ccccc3)nc3ccc(Br)cc23)c(F)c1 [Example 56, 6-Bromo-N-[2-fluoro-4-(methylcarbamoyl)phenyl]-3-methyl-2-phenylquinoline-4-carboxamide]
- IC50 [1]: 285 nM

SMILES: O=C(O)c1ccc(NC(=O)c2c(C(F)(F)F)c(-c3ccccc3)nc3ccc(Br)cc23)c(F)c1 [Example 57, 4-({[6-Bromo-2-phenyl-3-(trifluoromethyl)quinolin-4-yl]carbonyl}amino)-3-fluorobenzoic acid]
- IC50 [1]: 437 nM

SMILES: Cc1c(-c2ccccc2)nc2c(C)cc(Br)cc2c1C(=O)Nc1ccc(C(=O)O)cc1 [Example 58, 4-{[(6-Bromo-3,8-dimethyl-2-phenylquinolin-4-yl)carbonyl]amino}benzoic acid]
- IC50 [1]: 557 nM

SMILES: Cc1c(-c2ccccc2)nc2ccc(Cl)cc2c1C(=O)Nc1ccc(C(=O)O)cc1F [Example 59, 4-{[(6-Chloro-3-methyl-2-phenylquinolin-4-yl)carbonyl]amino}-3-fluorobenzoic acid]
- IC50 [1]: 203 nM

SMILES: COCS(=O)(=O)c1cc(C(=O)O)ccc1NC(=O)c1c(C)c(-c2ccccc2)nc2ccc(Br)cc12 [Example 60, 4-{[(6-Bromo-3-methyl-2-phenylquinolin-4-yl)carbonyl]amino}-3-[(methoxymethyl)sulfonyl]benzoic acid]
- IC50 [1]: 27 nM

SMILES: O=C(O)c1cc(F)c(NC(=O)c2c(C(F)(F)F)c(-c3ccccc3)nc3ccc(Br)cc23)c(Br)c1 [Example 62, 3-Bromo-4-({[6-bromo-2-phenyl-3-(trifluoromethyl)quinolin-4-yl]carbonyl}amino)-5-fluorobenzoic acid]
- IC50 [1]: 301 nM

SMILES: Cc1c(-c2ccccc2)nc2ccc(S(F)(F)(F)(F)F)cc2c1C(=O)Nc1ccc(C(=O)O)cc1F [Example 63, 3-Fluoro-4-({[3-methyl-6-(pentafluoro-λ^6-sulfanyl)-2-phenylquinolin-4-yl]carbonyl}amino)benzoic acid]
- IC50 [1]: 246 nM

SMILES: Cc1c(-c2ccccc2)nc2ccc(C(F)F)cc2c1C(=O)Nc1ccc(C(=O)O)cc1F [Example 64, 4-({[6-(Difluoromethyl)-3-methyl-2-phenylquinolin-4-yl]carbonyl}amino)-3-fluorobenzoic acid]
- IC50 [1]: 362 nM

SMILES: Cc1c(-c2ccccc2)nc2ccc(Br)cc2c1C(=O)Nc1cc(F)c(C(=O)O)cc1F [Example 66, 4-{[(6-Bromo-3-methyl-2-phenylquinolin-4-yl)carbonyl]amino}-2,5-difluorobenzoic acid]
- IC50 [1]: 282 nM

SMILES: O=C(O)c1ccc(NC(=O)c2c(F)c(-c3ccccc3)nc3ccc(Br)cc23)c(F)c1 [Example 73, 4-{[(6-Bromo-3-fluoro-2-phenylquinolin-4-yl)carbonyl]amino}-3-fluorobenzoic acid]
- IC50 [2]: 98 nM

SMILES: COc1c(-c2ccccc2)nc2ccc(Br)cc2c1C(=O)Nc1ccc(C(=O)O)cc1F [Example 74, 4-{[(6-Bromo-3-methoxy-2-phenylquinolin-4-yl)carbonyl]amino}-3-fluorobenzoic acid]
- IC50 [1]: 220 nM

SMILES: O=C(O)c1ccc(NC(=O)c2c(Cl)c(-c3ccccc3)nc3ccc(I)cc23)c(F)c1 [Example 75, 4-{[(3-Chloro-6-iodo-2-phenylquinolin-4-yl)carbonyl]amino}-3-fluorobenzoic acid]
- IC50 [1]: 9 nM

SMILES: O=C(O)c1ccc(NC(=O)c2c(Cl)c(-c3ccccc3)nc3ccc(Br)cc23)c(F)c1 [Example 76, 4-{[(6-Bromo-3-chloro-2-phenylquinolin-4-yl)carbonyl]amino}-3-fluorobenzoic acid]
- IC50 [1]: 17 nM

SMILES: O=C(O)c1ccc(NC(=O)c2c(C3CC3)c(-c3ccccc3)nc3ccc(Br)cc23)c(F)c1 [Example 77, 4-{[(6-Bromo-3-cyclopropyl-2-phenylquinolin-4-yl)carbonyl]amino}-3-fluorobenzoic acid]
- IC50 [1]: 27 nM

SMILES: Cc1c(-c2ccccc2)nc2c(C)cc(Br)cc2c1C(=O)Nc1ccc(C(=O)O)cc1F [Example 78, 4-{[(6-Bromo-3,8-dimethyl-2-phenylquinolin-4-yl)carbonyl]amino}-3-fluorobenzoic acid]
- IC50 [1]: 154 nM
